From patent US10519154B2, “7-substituted 1-pyridyl-naphthyridine-3-carboxylic acid amides and use thereof” (Bayer Pharma Aktiengesellschaft, priority 2016, dated 2019)

Molecular target: T1, human M2 receptor (Homo sapiens, UniProt P08172)
T1 sequence (P08172 1-466): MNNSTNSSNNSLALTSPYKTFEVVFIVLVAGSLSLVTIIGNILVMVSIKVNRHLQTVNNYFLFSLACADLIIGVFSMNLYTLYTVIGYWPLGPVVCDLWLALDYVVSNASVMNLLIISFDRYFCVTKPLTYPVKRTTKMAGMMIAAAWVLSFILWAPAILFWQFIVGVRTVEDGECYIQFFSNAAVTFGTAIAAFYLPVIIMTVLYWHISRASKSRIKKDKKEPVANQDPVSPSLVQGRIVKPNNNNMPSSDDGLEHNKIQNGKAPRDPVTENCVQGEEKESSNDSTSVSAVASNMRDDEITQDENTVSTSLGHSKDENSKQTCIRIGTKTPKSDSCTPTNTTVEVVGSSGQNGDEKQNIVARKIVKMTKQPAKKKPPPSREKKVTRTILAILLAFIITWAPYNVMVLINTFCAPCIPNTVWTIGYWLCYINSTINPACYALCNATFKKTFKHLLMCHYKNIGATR
Test: Functional M2-GIRK1/4 activation test: allosteric potency (EC50) and efficiency
Conditions: for EC50: Receptor activity EC50, CHO-DUKX-M2-GIRK cells, acetylcholine at EC20, in some cases mean of two or more determinations; for Emax: read-out: Efficiency, boosting of the acetylcholine effect at EC20 acetylcholine concentration, CHO-DUKX-M2-GIRK cells

SMILES	EC50 [nM]	Emax [%]
CC1(C)C(=O)N(c2ccc3c(=O)c(C(=O)N[C@@H](C4CC4)C(F)(F)F)cn(-c4ncc(F)cc4F)c3n2)C2(CC2)C1O (stereo partly drawn) [Example 33, N-[(1S)-1-Cyclopropyl-2,2,2-trifluoroethyl]-1-(3,5-difluoropyridin-2-yl)-7-[7-hydroxy-6,6-dimethyl-5-oxo-4-azaspiro[2.4]hept-4-yl]-4-oxo-1,4-dihydro-1,8-naphthyridine-3-carboxamide]	505	83
CC[C@@H](NC(=O)c1cn(-c2ncc(F)cc2F)c2nc(N3CCCCC3=O)ccc2c1=O)C(F)(F)F [Example 34, 1-(3,5-Difluoropyridin-2-yl)-4-oxo-7-(2-oxopiperidin-1-yl)-N-[(2R)-1,1,1-trifluorobutan-2-yl]-1,4-dihydro-1,8-naphthyridine-3-carboxamide]	880	82
O=C(NC(C1CC1)C(F)(F)F)c1cn(-c2ncc(F)cc2F)c2nc(N3C[C@@H](O)[C@@H](O)C3)ccc2c1=O (stereo partly drawn) [Example 35, N-[1-Cyclopropyl-2,2,2-trifluoroethyl]-1-(3,5-difluoropyridin-2-yl)-7-[(3R,4S)-3,4-dihydroxypyrrolidin-1-yl]-4-oxo-1,4-dihydro-1,8-naphthyridine-3-carboxamide]	170	99.5
O=C(NC(C1CC1)C(F)(F)F)c1cn(-c2ncc(F)cc2F)c2nc(N3CC4CC4(O)C3)ccc2c1=O (centres unmarked) [Example 36, N-[1-Cyclopropyl-2,2,2-trifluoroethyl]-1-(3,5-difluoropyridin-2-yl)-7-[1-hydroxy-3-azabicyclo[3.1.0]hex-3-yl]-4-oxo-1,4-dihydro-1,8-naphthyridine-3-carboxamide]	22	100
O=C(NC(C1CC1)C(F)(F)F)c1cn(-c2ncc(F)cc2F)c2nc(N3C[C@@H](O)[C@H](O)C3)ccc2c1=O (stereo partly drawn) [Example 40, N-[1-Cyclopropyl-2,2,2-trifluoroethyl]-1-(3,5-difluoropyridin-2-yl)-7-[(3R,4R)-3,4-dihydroxypyrrolidin-1-y1]-4-oxo-1,4-dihydro-1,8-naphthyridine-3-carboxamide]	160	100
CC[C@@H](NC(=O)c1cn(-c2ncc(F)cc2F)c2nc(N3C[C@@H](O)[C@@H](O)C3)ccc2c1=O)C(F)(F)F [Example 41, 1-(3,5-Difluoropyridin-2-yl)-7-[(3R,4S)-3,4-dihydroxypyrrolidin-1-yl]-4-oxo-N-[(2R)-1,1,1-trifluorobutan-2-yl]-1,4-dihydro-1,8-naphthyridine-3-carboxamide]	330	100
CC[C@@H](NC(=O)c1cn(-c2ncc(F)cc2F)c2nc(N3C[C@@H](O)[C@H](O)C3)ccc2c1=O)C(F)(F)F [Example 42, 1-(3,5-Difluoropyridin-2-yl)-7-[(3R,4R)-3,4-dihydroxypyrrolidin-1-yl]-4-oxo-N-[(2R)-1,1,1-trifluorobutan-2-yl]-1,4-dihydro-1,8-naphthyridine-3-carboxamide]	295	100
O=C(N[C@H](C1CC1)C(F)(F)F)c1cn(-c2ncc(F)cc2Cl)c2nc(N3C[C@@H](O)[C@@H](O)C3)ccc2c1=O [Example 50, 1-(3-Chloro-5-fluoropyridin-2-yl)-N-[(1R)-1-cyclopropyl-2,2,2-trifluoroethyl]-7-[(3R,4S)-3,4-dihydroxypyrrolidin-1-yl]-4-oxo-1,4-dihydro-1,8-naphthyridine-3-carboxamide]	730	92
O=C(N[C@H](C1CC1)C(F)(F)F)c1cn(-c2ncc(F)cc2Cl)c2nc(N3C[C@@H](O)[C@H](O)C3)ccc2c1=O [Example 51, 1-(3-Chloro-5-fluoropyridin-2-yl)-N-[(1R)-1-cyclopropyl-2,2,2-trifluoroethyl]-7-[(3R,4R)-3,4-dihydroxypyrrolidin-1-yl]-4-oxo-1,4-dihydro-1,8-naphthyridine-3-carboxamide]	527	84.3
O=C(NC(C(F)(F)F)C(F)(F)F)c1cn(-c2ncc(F)cc2F)c2nc(N3C[C@H](O)[C@@H](O)C3)ccc2c1=O [Example 60, 1-(3,5-Difluoropyridin-2-yl)-7-[(3S,4S)-3,4-dihydroxypyrrolidin-1-yl]-N-(1,1,1,3,3,3-hexafluoropropan-2-yl)-4-oxo-1,4-dihydro-1,8-naphthyridine-3-carboxamide]	275	100
O=C(N[C@@H](C1CC1)C(F)(F)F)c1cn(-c2ncc(F)cc2F)c2nc(N3C[C@H](O)[C@@H](O)C3)ccc2c1=O [Example 61, N-[(1S)-1-Cyclopropyl-2,2,2-trifluoroethyl]-1-(3,5-difluoropyridin-2-yl)-7-[(3S,4S)-3,4-dihydroxypyrrolidin-1-yl]-4-oxo-1,4-dihydro-1,8-naphthyridine-3-carboxamide]	795	100
O=C(N[C@@H](C1CC1)C(F)(F)F)c1cn(-c2ncc(F)cc2F)c2nc(N3C[C@@H](O)[C@@H](O)C3)ccc2c1=O [Example 62, N-[(1S)-1-Cyclopropyl-2,2,2-trifluoroethyl]-1-(3,5-difluoropyridin-2-yl)-7-[(3R,4S)-3,4-dihydroxypyrrolidin-1-yl]-4-oxo-1,4-dihydro-1,8-naphthyridine-3-carboxamide]	220	100
O=C(N[C@@H](C1CC1)C(F)(F)F)c1cn(-c2ncc(F)cc2F)c2nc(N3C[C@@H](O)[C@H](O)C3)ccc2c1=O [Example 63, N-[(1S)-1-Cyclopropyl-2,2,2-trifluoroethyl]-1-(3,5-difluoropyridin-2-yl)-7-[(3R,4R)-3,4-dihydroxypyrrolidin-1-yl]-4-oxo-1,4-dihydro-1,8-naphthyridine-3-carboxamide]	170	100
O=C(N[C@H](C1CC1)C(F)(F)F)c1cn(-c2ncc(F)cc2F)c2nc(N3CCNC3=O)ccc2c1=O [Example 65, N-[(1R)-1-Cyclopropyl-2,2,2-trifluoroethyl]-1-(3,5-difluoropyridin-2-yl)-4-oxo-7-(2-oxoimidazolidin-1-yl)-1,4-dihydro-1,8-naphthyridine-3-carboxamide]	87	100
O=C(Nc1c(Cl)cccc1Cl)c1cn(-c2ncc(F)cc2F)c2nc(N3C[C@@H](O)[C@@H](O)C3)ccc2c1=O [Example 66, N-(2,6-Dichlorophenyl)-1-(3,5-difluoropyridin-2-yl)-7-[(3R,4S)-3,4-dihydroxypyrrolidin-1-yl]-4-oxo-1,4-dihydro-1,8-naphthyridine-3-carboxamide]	310	92.5
O=C(Nc1c(Cl)cccc1Cl)c1cn(-c2ncc(F)cc2F)c2nc(N3C[C@H](O)[C@@H](O)C3)ccc2c1=O [Example 68, N-(2,6-Dichlorophenyl)-1-(3,5-difluoropyridin-2-yl)-7-[(3S,4S)-3,4-dihydroxypyrrolidin-1-yl]-4-oxo-1,4-dihydro-1,8-naphthyridine-3-carboxamide]	195	96
CC[C@@H](NC(=O)c1cn(-c2ncc(F)cc2F)c2nc(NCC(F)F)ccc2c1=O)C(F)(F)F [Example 70, 7-[(2,2-Difluoroethyl)amino]-1-(3,5-difluoropyridin-2-yl)-4-oxo-N-[(2R)-1,1,1-trifluorobutan-2-yl]-1,4-dihydro-1,8-naphthyridine-3-carboxamide]	220	91
CC[C@@H](NC(=O)c1cn(-c2ncc(F)cc2F)c2nc(N3CCOCC3)ccc2c1=O)C(F)(F)F [Example 71, 1-(3,5-Difluoropyridin-2-yl)-7-(morpholin-4-yl)-4-oxo-N-[(2R)-1,1,1-trifluorobutan-2-yl]-1,4-dihydro-1,8-naphthyridine-3-carbonxamide]	360	97.5
CC[C@@H](NC(=O)c1cn(-c2ncc(F)cc2F)c2nc(N3CCCC(F)(F)C3)ccc2c1=O)C(F)(F)F [Example 72, 7-(3,3-Difluoropiperidin-1-yl)-1-(3,5-difluoropyridin-2-yl)-4-oxo-N-[(2R)-1,1,1-trifluorobutan-2-yl]-1,4-dihydro-1,8-naphthyridine-3-carboxamide]	45	90
CC(C)C[C@@H](NC(=O)c1cn(-c2ncc(F)cc2F)c2nc(N3C[C@@H](O)CC3=O)ccc2c1=O)C(F)(F)F [Example 74, 1-(3,5-Difluoropyridin-2-yl)-7-[(4S)-4-hydroxy-2-oxopyrrolidin-1-yl]-4-oxo-N-[(2R)-1,1,1-trifluoro-4-methylpentan-2-yl]-1,4-dihydro-1,8-naphthyridine-3-carboxamide]	14	100
CC(C)C[C@H](NC(=O)c1cn(-c2ncc(F)cc2F)c2nc(N3C[C@@H](O)CC3=O)ccc2c1=O)C(F)(F)F [Example 75, 1-(3,5-Difluoropyridin-2-yl)-7-[(4S)-4-hydroxy-2-oxopyrrolidin-1-yl]-4-oxo-N-[(2S)-1,1,1-trifluoro-4-methylpentan-2-yl]-1,4-dihydro-1,8-naphthyridine-3-carboxamide]	19	100
O=C(NC1(C(F)(F)F)CCCC1)c1cn(-c2ncc(F)cc2F)c2nc(N3C[C@@H](O)CC3=O)ccc2c1=O [Example 79, 1-(3,5-Difluoropyridin-2-yl)-7-[(4S)-4-hydroxy-2-oxopyrrolidin-1-yl]-4-oxo-N-[1-(trifluoromethyl)cyclopentyl]-1,4-dihydro-1,8-naphthyridine-3-carboxamide]	54	100
